Reference: patent US8293294B2, “Cosmetic composition comprising an aqueous extract of Chrysophyllum cainito” (Laboratories Clarins, priority 2008, dated 2012)

Test system: CML (carboxymethyl adducts of lysine) induced by glyoxal
Assay: Inhibition of glyoxal-induced CML formation in cultured human dermal fibroblasts (immunofluorescence)
Type: cell-based
Conditions: aminoguanidine 10 mM, positive reference, fibroblasts with 200 μM glyoxal for 7 days
Method: It is a question of evaluating the inhibitory activity of the extract of Chrysophyllum cainito with respect to CML (carboxymethyl adducts of lysine) induced by glyoxal as well as its protective effect on vimentin, the target of formation of the CMLs, in a culture of human dermal fibroblasts.
Normal adult human fibroblasts were cultivated at 37° C. and 5% CO2 on a cover slip in a Petri dish of diameter 60 at a rate of 30000 cells per cover slip. The incubation medium is DMEM medium (Dulbecco modified Eagle medium) supplemented with 10% fetal calf serum and penicillin/streptomycin (50 μg/ml). […]
The cells were washed with PBS (phosphate-buffered saline) and permeabilized with 0.1% Triton X-100 for 10 minutes. […] Before taking the reading, 4 rinsings with PBS are performed.
The cover slips are mounted on the glass slide and then examined with the fluorescence microscope (Nikon Eclipse 50i). […] The photomicrographs are analyzed using Lucia image analysis software. The FITC fluorescence images indicate the regions of localization of vimentin. The TRITC fluorescence images indicate the regions of localization of CML. The DAPI fluorescence images indicate the cell nuclei and therefore the number of cells per field (see FIGS. 1 to 4).
This intensity of fluorescence is shown relative to the number of cells per micrograph. […]

## N=C(N)NN [Aminoguanidine]
  inhibition of the formation of carboxymethyl adducts of lysine (CML), intensity of labeling: completely inhibits
Listed as aminoguanidine
  inhibition of the formation of carboxymethyl adducts of lysine (CML), intensity of labeling: completely inhibited
